This is an account of results in EPA's ToxValDB 9.5.

For data set [1], the system named is Rattus norvegicus. The note with it: oral; for NOEL: Hershberger, duration: 10 days, gavage, Sprague-Dawley.
Data set [2] concerns Rattus norvegicus. The settings on record: for NEL / LEL: Wistar; for NOAEL / LOAEL: Crl:WI (Han).
[3] abbreviates: chronic, duration: 123 days, oral, gavage, F, Heart: Heart Weight, Relative.
Setting [4] is: chronic, duration: 123 days, oral, gavage, F, Kidney: Kidney, Cortical Tubular Dilation, Multifocal + Whole Body: Body Weight Change.
Where [5] appears, read: reproduction developmental, duration: 90 days, oral, gavage, M, generation: P0, P0: General Toxicity: Whole Body: Body Weight Change + P0: General Toxicity: Whole Body: Body Weight, Absolute + P0: General Toxicity: Whole….
The mark [6] stands for this setting: reproduction developmental, duration: 123 days, oral, gavage, F, generation: P0, P0: General Toxicity: Whole Body: Body Weight Change + P0: General Toxicity: Whole Body: Body Weight, Absolute + P0: General Toxicity: Whole….
Where [7] appears, read: subchronic, duration: 90 days, oral, gavage, M, Kidney: Blood Urea Nitrogen (BUN), Blood + Kidney: Kidney, Cortical Tubular Dilation, Multifocal + Whole Body: Body Weight Change.

A word on the NOAEL: it is the highest dose or exposure tested at which no adverse effect was seen. One may read the LOAEL as the lowest tested level that showed an adverse finding.

In the data set on Rattus norvegicus [1] (uterotrophic, duration: 3 days, Active), `CCOC(=O)C(C)(C)Oc1ccc(Cl)cc1` [Clofibrate] came in with an LEL of 4 mg/kg-day.

As for `Oc1ccccc1-c1ccccc1` [2-Phenylphenol], in the data set with Rattus norvegicus [1] (inactive + Negative + Negative + anti-androgenic + decrease in ASTs, NS (1.6 d) delay PPS / accompanied by "minor" increase in liver wt and…), the NOEL is 250 mg/kg-day.

In the case of `CC[C@H](C)[C@H]1O[C@]2(C=C[C@@H]1C)C[C@@H]1C[C@@H](C/C=C(\C)[C@@H](O[C@H]3C[C@H](OC)[C@@H](O[C@H]4C[C@H](OC)[C@@H](O)[C@H](C)O4)[C@H](C)O3)[C@@H](C)/C=C/C=C3\CO[C@@H]4[C@H](O)C(C)=C[C@@H](C(=O)O1)[C@]34O)O2.CO[C@H]1C[C@H](O[C@H]2[C@H](C)O[C@@H](O[C@@H]3/C(C)=C/C[C@@H]4C[C@@H](C[C@]5(C=C[C@H](C)[C@@H](C(C)C)O5)O4)OC(=O)[C@@H]4C=C(C)[C@@H](O)[C@H]5OC/C(=C\C=C\[C@@H]3C)[C@]54O)C[C@@H]2OC)O[C@@H](C)[C@@H]1O` [Abamectin], the NOEL in the data set with Rattus norvegicus [1] (inactive + Negative + Negative + anti-androgenic + negative) amounted to 1.5 mg/kg-day.

Consider `O=S(=O)(O)CCC(F)(F)C(F)(F)C(F)(F)C(F)(F)C(F)(F)C(F)(F)F` [6:2 Fluorotelomer sulfonic acid], for which the NEL with Rattus norvegicus [2] (chronic, duration: 123 days, oral, gavage, F, Blood: Albumin/Globulin (A/G) Ratio + Blood: Basophils + Blood: Calcium (CA), Blood + Blood: Chloride (CL), Blood + Blood: Cholesterol (CHOL…) is 45 mg/kg-day; in the data set on Rattus norvegicus [2] (setting [3]) it was 5 mg/kg-day; with Rattus norvegicus [2] (setting [4]), 15 mg/kg-day; in the data set with Rattus norvegicus [2] (developmental, duration: 34 days, parental, M/F, generation: F1, F1: Nipples: Nipple Retention + F1: Thyroid: Thyroid Gland Weight, Absolute + F1: Thyroid: Thyroid Gland Weight, Relative + F1: Thyroid: …), 45 mg/kg-day; with Rattus norvegicus [2] (reproduction developmental, duration: 90 days, oral, gavage, M, Whole Body: Days of Cohabitation + Whole Body: Fertility Index + Whole Body: Percent Mating), 45 mg/kg-day; in the data set with Rattus norvegicus [2] (reproduction developmental, duration: 123 days, oral, gavage, F, Ovary: Ovary Histopathology + Ovary: Ovary Weight, Absolute + Uterus: Estrous Cycle, Length + Uterus: Post-Implantation Loss + Uterus: Pre-…), 45 mg/kg-day. The NEL in the data set with Rattus norvegicus [2] (reproduction developmental, duration: 123 days, oral, gavage, F, generation: P0, P0: Uterus: Abortions + P0: Uterus: Resorptions, Mean/Litter + P0: Vagina: Uterus (With Cervix) Weight, Absolute + P0: Vagina: Vagina …) was 45 mg/kg-day; in the data set on Rattus norvegicus [2] (subchronic, duration: 90 days, oral, gavage, M, Blood: Albumin/Globulin (A/G) Ratio + Blood: Basophils + Blood: Calcium (CA), Blood + Blood: Chloride (CL), Blood + Blood: Cholesterol (CHOL…) it was 45 mg/kg-day; in the data set on Rattus norvegicus [2] (setting [7]), 15 mg/kg-day. Also, the LEL with Rattus norvegicus [2] (setting [3]) is 15 mg/kg-day; in the data set with Rattus norvegicus [2] (setting [4]) it was 45 mg/kg-day; with Rattus norvegicus [2] (setting [7]), 45 mg/kg-day; in the data set on Rattus norvegicus [2] (subchronic, duration: 90 days, oral, gavage, M, Kidney: Kidney Weight, Absolute + Kidney: Kidney Weight, Relative + Liver: Albumin (A), Blood + Whole Body: Total Protein (TP), Blood), 5 mg/kg-day. Moreover, the NOAEL in the data set with Rattus norvegicus [2] (developmental, duration: 34 days, parental, M/F, generation: F1, F1: Developmental: Nipples: Nipple Retention + F1: Developmental: Thyroid: Thyroid Gland Weight, Absolute + F1: Developmental: Thyroid: …) stood at 45 mg/kg-day; with Rattus norvegicus [2] (setting [5]), 15 mg/kg-day; in the data set with Rattus norvegicus [2] (reproduction developmental, duration: 90 days, oral, gavage, M, generation: P0, P0: Reproductive: Whole Body: Days of Cohabitation + P0: Reproductive: Whole Body: Fertility Index + P0: Reproductive: Whole Body: Percent …), 45 mg/kg-day; in the data set with Rattus norvegicus [2] (reproduction developmental, duration: 123 days, oral, gavage, F, generation: P0, P0: Developmental: Uterus: Abortions + P0: Developmental: Uterus: Litter Loss + P0: Reproductive: Vagina: Uterus (With Cervix) Weight, …), 45 mg/kg-day; in the data set on Rattus norvegicus [2] (reproduction developmental, duration: 123 days, oral, gavage, F, generation: P0, P0: Developmental: Uterus: Post-Implantation Loss + P0: Developmental: Uterus: Pre-Implantation Loss + P0: Reproductive: Ovary: Ovary …), 45 mg/kg-day; in the data set on Rattus norvegicus [2] (setting [6]), 15 mg/kg-day. Besides, the LOAEL in the data set on Rattus norvegicus [2] (setting [5]) and with Rattus norvegicus [2] (setting [6]) was 45 mg/kg-day each time.
